One experiment has as its target T1, WASP (Homo sapiens, UniProt P42768).
T1 sequence (P42768 with tags, fused parts or gaps limits assumed): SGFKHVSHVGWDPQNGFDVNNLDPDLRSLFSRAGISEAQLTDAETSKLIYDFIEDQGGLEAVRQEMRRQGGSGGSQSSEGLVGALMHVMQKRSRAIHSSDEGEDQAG
As to conditions: cited from earlier work.

The subject of the next experiment is N-WASP. As to conditions: cited from earlier work.
The target of a further experiment is T2, full-length Pak1 (Homo sapiens, UniProt Q13153).
T2 construct: made in house; host or cells: Sf9 cells
In words: luminescence-based (Kinase Glo) kinase assay, Cdc42-activated full-length Pak1. Format: biochemical. The conditions noted are these: 384-well plates, ATP-dependent luminescence, FIG. 9C. The method, then:
In some embodiments, the kinase activity of these two proteins (wild-type full length kinase, and isolated kinase domain) is measured in parallel using a validated luminescence-based assay. In this assay, kinase activity is based on a measurement of the residual ATP in the reaction following kinase-mediated ATP hydrolysis (Kinase Glo®; Promega®). This is an endpoint assay in which kinase reactions are allowed to proceed until a predetermined timepoint at which point the addition of the Kinase Glo® detection mix containing luciferase and luciferin stops the kinase reaction and utilizes the residual ATP to convert luciferin to oxyluciferin with the accompanying emission of a photon of light. Intensity of the emitted light is linearly correlated with ATP concentration. […]
The isolated kinase domain or full-length Pak1 in assay buffer is aliquotted into individual wells of a 384-well plate using a Bio-Tek MicroFill®. […] The reaction is stopped by the addition of Kinase Glo® reagent (15 μl/well), and is incubated at room temperature for 10-30 minutes to allow development of luminescence. Luminescence is read in a Cary Eclipse (Varian®) fluorometer/luminometer outfitted for reading 384-well plates.
A luminescence-based assay for kinase activity is used based on measurement of residual ATP in the reaction following kinase-mediated ATP hydrolysis. […]

A further experiment concerns Pak. The conditions noted are these: reported; cited from earlier work.
In experiment [1] the test system is mixed-lineage kinases (MLKs). As to conditions: reported; cited from earlier work.

Entries after “also recorded” stand apart in the source; their conditions may differ.

T2 sequence (Q13153 whole entry): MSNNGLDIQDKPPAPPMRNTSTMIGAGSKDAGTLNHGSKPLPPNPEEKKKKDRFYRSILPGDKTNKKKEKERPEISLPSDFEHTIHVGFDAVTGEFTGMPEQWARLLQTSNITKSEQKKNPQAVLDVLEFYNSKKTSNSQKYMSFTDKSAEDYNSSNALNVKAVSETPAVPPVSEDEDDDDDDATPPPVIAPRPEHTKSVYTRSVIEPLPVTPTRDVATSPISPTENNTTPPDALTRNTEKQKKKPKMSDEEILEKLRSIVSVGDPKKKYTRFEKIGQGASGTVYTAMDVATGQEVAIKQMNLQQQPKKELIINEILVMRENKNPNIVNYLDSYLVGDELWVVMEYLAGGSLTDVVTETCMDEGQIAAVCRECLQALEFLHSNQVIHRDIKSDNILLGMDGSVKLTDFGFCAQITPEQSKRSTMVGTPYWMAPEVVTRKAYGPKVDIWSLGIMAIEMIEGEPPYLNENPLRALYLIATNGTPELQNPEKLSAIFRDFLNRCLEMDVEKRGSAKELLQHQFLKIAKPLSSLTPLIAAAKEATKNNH

For `CN(C)C[C@H](O)Cn1c2ccc(Br)cc2c2cc(Br)ccc21` (racemic) [wiskostatin], the “binding site on WASP” value on WASP (NMR structure) is “bound exclusively to the PBD in its autoinhibited conformation”. Further, the “effect on autoinhibited fold of the PBD” value on WASP (biophysical experiments) is reported as “stabilizes the autoinhibited fold of the PBD”. Besides, the “inhibition of N-WASP” value in the experiment on N-WASP is listed as “chemical inhibitors of N-WASP”.
`CN[C@@H]1C[C@H]2O[C@@](C)([C@@H]1OC)n1c3ccccc3c3c4c(c5c6ccccc6n2c5c31)C(=O)NC4` [staurosporine]: the “inhibition of Pak1 kinase activity” value on full-length Pak1 is listed as “successfully detects inhibition of Pak; also recorded: readily detected”.
Regarding `CCSCc1ccc2c(c1)c1c3c(c4c5cc(CSCC)ccc5n5c4c1n2[C@H]1C[C@](O)(C(=O)OC)[C@]5(C)O1)CNC3=O` [CEP-1347], the “concentration at which Pak is inhibited” value in the experiment on Pak was “low micromolar”. In experiment [1], the “potency against MLKs relative to Pak” value is recorded as “at least an order of magnitude more potent”.

(Values after US20080032897A1, “Methods of screening for inhibitors of autoinhibited proteins” (priority 2004, published 2008).)
